Experimental data from ChEMBL document CHEMBL1153951, “Partial regeneration of beta-cells in the islets of Langerhans by Nymphayol a sterol isolated from Nymphaea stellata (Willd.) flowers” (2009).
The source made the active and inactive calls. The calls are words filed in the database; no cut-off is given here.

How the values were obtained:
Rattus norvegicus [1] = assay: Antihyperglycemic activity in STZ-diabetic rat assessed as improvement in beta cell granulation at 50 mg/kg, po after 45 days by histopathological study; format: functional, organism-based; set-up: dose 50 mg/kg
Rattus norvegicus [2] = assay: Antihyperglycemic activity in po dosed STZ-diabetic rat assessed as lowering of fasting plasma glucose level after 45 days by colorimetry; format: functional
Rattus norvegicus [3] = assay: Antihyperglycemic activity in STZ-diabetic rat assessed as potentiation of insulin secretion from existing beta cells at 50 mg/kg, po after 45 days; format: functional, organism-based; set-up: dose 50 mg/kg
Rattus norvegicus [4] = assay: Antihyperglycemic activity in STZ-diabetic rat assessed as expansion of islet cells at 12.5 mg/kg, po after 45 days by histopathological study; format: functional, organism-based; set-up: dose 12.5 mg/kg
Rattus norvegicus [5] = assay: Antihyperglycemic activity in STZ-diabetic rat assessed as expansion of islet cells at 25 mg/kg, po after 45 days by histopathological study; format: functional, organism-based; set-up: dose 25 mg/kg
Rattus norvegicus [6] = assay: Antihyperglycemic activity in STZ-diabetic rat assessed as dilated islet cells at 12.5 mg/kg, po after 45 days by histopathological study; format: functional, organism-based; set-up: dose 12.5 mg/kg
Rattus norvegicus [7] = assay: Antihyperglycemic activity in STZ-diabetic rat assessed as dilated islet cells at 25 mg/kg, po after 45 days by histopathological study; format: functional, organism-based; set-up: dose 25 mg/kg
Rattus norvegicus [8] = assay: Antihyperglycemic activity in STZ-diabetic rat assessed as expansion of islet cells at 50 mg/kg, po after 45 days by histopathological study; format: functional, organism-based; set-up: dose 50 mg/kg
Rattus norvegicus [9] = assay: Antihyperglycemic activity in STZ-diabetic rat assessed as hyperplastic islet cells at 50 mg/kg, po after 45 days by histopathological study; format: functional, organism-based; set-up: dose 50 mg/kg
Rattus norvegicus [10] = assay: Antihyperglycemic activity in STZ-diabetic rat assessed as dilated islet cells at 600 ug/kg, po after 45 days by histopathological study; format: functional, organism-based
Rattus norvegicus [11] = assay: Antihyperglycemic activity in STZ-diabetic rat assessed as hyperplastic islet cells at 600 mg/kg, po after 45 days by histopathological study; format: functional, organism-based; set-up: dose 600 mg/kg
Rattus norvegicus [12] = assay: Antihyperglycemic activity in po dosed STZ-diabetic rat assessed as insulin containing beta-cells by immunohistochemical study; format: functional, organism-based

CCCC[C@@H](C)[C@H]1CC[C@H]2[C@@H]3CC=C4C[C@@H](O)CC[C@]4(C)[C@H]3CC[C@]12C [NYMPHAYOL]
Activity (Rattus norvegicus [1]): Active | Activity (Rattus norvegicus [2]): 78.05% | Activity (Rattus norvegicus [3]): Active | Activity (Rattus norvegicus [4]): Active | Activity (Rattus norvegicus [5]): inactive | Activity (Rattus norvegicus [6]): Active | Activity (Rattus norvegicus [7]): inactive | Activity (Rattus norvegicus [8]): inactive | Activity (Rattus norvegicus [9]): inactive | Activity (Rattus norvegicus [10]): inactive | Activity (Rattus norvegicus [11]): inactive | Activity (Rattus norvegicus [12]): Active
